Assay results from patent US7829568B2, “Substituted 5,6,7,8-tetrahydroimidazo[1,2-a]pyridin-2-ylamine compounds and their use for producing drugs” (Gruenenthal GmbH, priority 2005, dated 2010).

Test system: batrachotoxin (BTX) binding site of the sodium channel
Assay: Affinity to the batrachotoxin (BTX) binding site of the sodium channel
Parameters: species or system rat
Settings: [3H]-batrachotoxinin A20 α-benzoate 10 nM; synaptosomes from rat cerebral cortex; test concentration not given

Going from `CN(C(=O)c1cccc2ccccc12)c1nc2n(c1C(=O)NC(c1ccccc1)c1ccc(Cl)cc1)CCCC2` (stereo not shown) [Example 139, 2-[methyl-(naphthalene-1-carbonyl)-amino]-5,6,7,8-tetrahydro-imidazo[1,2-a]pyridine-3-carboxylic acid [(4-chlor-phenyl)-phenyl-methyl]-amide] to `CN(C(=O)c1cccc2ccccc12)c1nc2n(c1C(=O)NCCc1ccc(Oc3ccccc3)cc1)CCCC2` [Example 68, 2-[methyl-(naphthalene-1-carbonyl)-amino]-5,6,7,8-tetrahydro-imidazo[1,2-a]pyridine-3-carboxylic acid [2-(4-phenoxy-phenyl)-ethyl]-amide], the “BTX inhibition (rat) (% inhibition)” value rises from 73% to 87%.

Going from `CN(C(=O)c1cccc2ccccc12)c1nc2n(c1C(=O)N1CCN(Cc3cc4ccccc4o3)CC1)CCCC2` [Example 108, naphthalene-1-carboxylic acid [3-(4-benzofuran-2-ylmethyl-piperazine-1-carbonyl)-5,6,7,8-tetrahydro-imidazo[1,2-a]pyridin-2-yl]-methyl-amide] to `CN(C(=O)c1cccc2ccccc12)c1nc2n(c1C(=O)N1CCN(c3ccccc3Cl)CC1)CCCC2` [Example 148, naphthalene-1-carboxylic acid {3-[4-(2-chloro-phenyl)-piperazine-1-carbonyl]-5,6,7,8-tetrahydro-imidazo[1,2-a]pyridin-2-yl}-methyl-amide], the “BTX inhibition (rat) (% inhibition)” value falls from 41% to 35%.

First: CN(C(=O)c1ccccc1)c1nc2n(c1C(=O)NC1CCN(Cc3c(Cl)cccc3Cl)C1)CCCC2 (stereo not shown) [Example 101, 2-(benzoyl-methyl-amino)-5,6,7,8-tetrahydro-imidazo[1,2-a]pyridine-3-carboxylic acid [1-(2,6-dichloro-benzyl)-pyrrolidin-3-yl]-amide]
Second: CN(C(=O)c1cccc2ccccc12)c1nc2n(c1C(=O)NC1CCN(Cc3ccc(C(F)(F)F)cc3)C1)CCCC2 (stereo not shown) [Example 30, 2-[methyl-(naphthalene-1-carbonyl)-amino]-5,6,7,8-tetrahydro-imidazo[1,2-a]pyridine-3-carboxylic acid [1-(4-trifluoromethyl-benzyl)-pyrrolidin-3-yl]-amide]
The “BTX inhibition (rat) (% inhibition)” value of the first is lower: 54% for the first, 85% for the second.

First: CN(C(=O)c1cccc2ccccc12)c1nc2n(c1C(=O)NCc1ccccc1OC(F)(F)F)CCCC2 [Example 99, 2-[methyl-(naphthalene-1-carbonyl)-amino]-5,6,7,8-tetrahydro-imidazo[1,2-a]pyridine-3-carboxylic acid 2-trifluoromethoxy-benzylamide]
Second: CN(C(=O)c1cccc2ccccc12)c1nc2n(c1C(=O)NCc1cccc(Cl)c1Cl)CCCC2 [Example 33, 2-[methyl-(naphthalene-1-carbonyl)-amino]-5,6,7,8-tetrahydro-imidazo[1,2-a]pyridine-3-carboxylic acid 2,3-dichlor-benzylamide]
The “BTX inhibition (rat) (% inhibition)” value of the first is lower: 33% for the first, 49% for the second.

First: CCCCN(C(=O)c1cccc(Cl)c1)c1nc2n(c1C(=O)NC(C)c1ccc3ccccc3c1)CCCC2 (stereo not shown) [Example 141, 2-[butyl-(3-chloro-benzoyl)-amino]-5,6,7,8-tetrahydro-imidazo[1,2-a]pyridine-3-carboxylic acid (1-naphthalen-2-yl-ethyl)-amide]
Second: CCCCN(C(=O)c1cccc(Cl)c1)c1nc2n(c1C(=O)NC(C)c1cccc3ccccc13)CCCC2 (stereo not shown) [Example 39, 2-[butyl-(3-chloro-benzoyl)-amino]-5,6,7,8-tetrahydro-imidazo[1,2-a]pyridine-3-carboxylic acid (1-naphthalen-1-yl-ethyl)-amide]
The “BTX inhibition (rat) (% inhibition)” value of the first is lower: 41% for the first, 47% for the second.

Going from `CCCCN(C(=O)c1cccc(Cl)c1)c1nc2n(c1C(=O)NC1CCCCC1)CCCC2` [Example 120, 2-[butyl-(3-chloro-benzoyl)-amino]-5,6,7,8-tetrahydro-imidazo[1,2-a]pyridine-3-carboxylic acid cyclohexylamide] to `CN(C(=O)c1cccc2ccccc12)c1nc2n(c1C(=O)NC1CCCCC1)CCCC2` [Example 154, 2-[methyl-(naphthalene-1-carbonyl)-amino]-5,6,7,8-tetrahydro-imidazo[1,2-a]pyridine-3-carboxylic acid cyclohexylamide], the “BTX inhibition (rat) (% inhibition)” value rises from 61% to 92%.

First: CN(C(=O)c1cccc2ccccc12)c1nc2n(c1C(=O)NCc1cc(C(F)(F)F)cc(C(F)(F)F)c1)CCCC2 [Example 15, 2-[Methyl-(naphthalene-1-carbonyl)-amino]-5,6,7,8-tetrahydro-imidazo[1,2-a]pyridine-3-carboxylic acid 3,5-bis-trifluoromethyl-benzylamide]
Second: CN(C(=O)c1ccccc1)c1nc2n(c1C(=O)NCc1ccc(Cl)cc1)CCCC2 [Example 157, 2-(benzoyl-methyl-amino)-5,6,7,8-tetrahydro-imidazo[1,2-a]pyridine-3-carboxylic acid 4-chloro-benzylamide]
The “BTX inhibition (rat) (% inhibition)” value of the first is higher: 68% for the first, 43% for the second.

Going from `CCCCN(C(=O)c1ccc(F)c(F)c1)c1nc2n(c1C(=O)N1CCN(Cc3ccc(Cl)cc3)CC1)CCCC2` [Example 150, N-butyl-N-{3-[4-(4-chlorobenzyl)-piperazine-1-carbonyl]-5,6,7,8-tetrahydro-imidazo[1,2-a]pyridin-2-yl}-3,4-difluoro-benzamide] to `CCCCN(C(=O)c1cccc(Cl)c1)c1nc2n(c1C(=O)N1CCN(Cc3ccc(Cl)cc3)CC1)CCCC2` [Example 140, N-butyl-3-chloro-N-{3-[4-(4-chloro-benzyl)-piperazine-1-carbonyl]-5,6,7,8-tetrahydro-imidazo[1,2-a]pyridin-2-yl}-benzamide], the “BTX inhibition (rat) (% inhibition)” value rises from 69% to 81%.

Compared with `CC1C(NC(=O)c2c(N(C)C(=O)c3cccc(Cl)c3)nc3n2CCCC3)CC2CC1C2(C)C` (stereo not shown) [Example 27, 2-[(3-chloro-benzoyl)-methyl-amino]-5,6,7,8-tetrahydro-imidazo[1,2-a]pyridine-3-carboxylic acid (2,6,6-trimethyl-bicyclo[3.1.1]hept-3-yl)-amide], `Cc1ccc(C)c(N2CCN(C(=O)c3c(N(C)C(=O)c4cccc(Cl)c4)nc4n3CCCC4)CC2)c1` [Example 100, 3-chloro-N-{3-[4-(2,5-dimethyl-phenyl)-piperazine-1-carbonyl]-5,6,7,8-tetrahydro-imidazo[1,2-a]pyridin-2-yl}-N-methyl-benzamide] is higher in “BTX inhibition (rat) (% inhibition)” value: 35% for the first, 74% for the second.

Going from `CCCCN(C(=O)c1cccc(Cl)c1)c1nc2n(c1C(=O)NC(COC)Cc1ccccc1)CCCC2` (stereo not shown) [Example 86, 2-[butyl-(3-chloro-benzoyl)-amino]-5,6,7,8-tetrahydro-imidazo[1,2-a]pyridine-3-carboxylic acid (1-methoxymethyl-2-phenyl-ethyl)-amide] to `CCCCN(C(=O)c1cccc(Cl)c1)c1nc2n(c1C(=O)NCc1cccc(C)c1C)CCCC2` [Example 133, 2-[butyl-(3-chloro-benzoyl)-amino]-5,6,7,8-tetrahydro-imidazo[1,2-a]pyridine-3-carboxylic acid 2,3-dimethyl-benzylamide], the “BTX inhibition (rat) (% inhibition)” value falls from 42% to 34%.

Going from `CN(C(=O)c1cccc(Cl)c1)c1nc2n(c1C(=O)N1CCN(c3cccc(C(F)(F)F)c3)CC1)CCCC2` [Example 14, 3-chloro-N-methyl-N-{3-[4-(3-trifluoromethyl-phenyl)-piperazine-1-carbonyl]-5,6,7,8-tetrahydro-imidazo[1,2-a]pyridin-2-yl}-benzamide] to `CCCCN(C(=O)c1cccc(Cl)c1)c1nc2n(c1C(=O)N1CCN(c3cccc(C(F)(F)F)c3)CC1)CCCC2` [Example 79, N-butyl-3-chloro-N-{3-[4-(3-trifluoromethyl-phenyl)-piperazine-1-carbonyl]-5,6,7,8-tetrahydro-imidazo[1,2-a]pyridin-2-yl}-benzamide], the “BTX inhibition (rat) (% inhibition)” value rises from 41% to 83%.

Compared with `CCCCN(C(=O)c1ccc(F)c(F)c1)c1nc2n(c1C(=O)N1CCN(c3ccc(C(F)(F)F)cn3)CC1)CCCC2` [Example 187, N-butyl-3,4-difluoro-N-{3-[4-(5-trifluoromethyl-pyridin-2-yl)-piperazine-1-carbonyl]-5,6,7,8-tetrahydro-imidazo[1,2-a]pyridin-2-yl}-benzamide], `CCCCN(C(=O)c1ccc(F)c(F)c1)c1nc2n(c1C(=O)NCc1ccccc1OC(F)(F)F)CCCC2` [Example 88, 2-[butyl-(3,4-difluoro-benzoyl)-amino]-5,6,7,8-tetrahydro-imidazo[1,2-a]pyridine-3-carboxylic acid 2-trifluoromethoxy-benzylamide] is lower in “BTX inhibition (rat) (% inhibition)” value: 41% for the first, 31% for the second.

Compared with `CCc1ccccc1N1CCN(C(=O)c2c(N(C)C(=O)c3ccccc3)nc3n2CCCC3)CC1` [Example 3, N-{3-[4-(2-ethyl-phenyl)-piperazine-1-carbonyl]-5,6,7,8-tetrahydro-imidazo[1,2-a]pyridin-2-yl}-N-methyl-benzamide], `CN(C(=O)c1cccc2ccccc12)c1nc2n(c1C(=O)N1CCc3c([nH]c4ccccc34)C1)CCCC2` [Example 144, naphthalene-1-carboxylic acid methyl-[3-(1,3,4,9-tetrahydro-b-carboline-2-carbonyl)-5,6,7,8-tetrahydro-imidazo[1,2-a]pyridin-2-yl]-amide] is lower in “BTX inhibition (rat) (% inhibition)” value: 34% for the first, 31% for the second.

First: CCCCN(C(=O)c1ccc(F)c(F)c1)c1nc2n(c1C(=O)N(C)C1CCN(Cc3cc4ccccc4o3)C1)CCCC2 (stereo not shown) [Example 34, 2-[butyl-(3,4-difluoro-benzoyl)-amino]-5,6,7,8-tetrahydro-imidazo[1,2-a]pyridine-3-carboxylic acid (1-benzofuran-2-ylmethyl-pyrrolidin-3-yl)-methyl-amide]
Second: CCCCN(C(=O)c1cccc(Cl)c1)c1nc2n(c1C(=O)NCc1ccc(OC(F)(F)F)cc1)CCCC2 [Example 127, 2-[butyl-(3-chloro-benzoyl)-amino]-5,6,7,8-tetrahydro-imidazo[1,2-a]pyridine-3-carboxylic acid 4-trifluoromethoxy-benzylamide]
The “BTX inhibition (rat) (% inhibition)” value of the first is higher: 83% for the first, 60% for the second.
